Reference: US12065443B2, “Compounds and pharmaceutical compositions thereof for the treatment of diseases” (priority 2017, dated 2024)
Read-outs that look alike come from different tables or passages of the source.

Columns and labels:
SIK1 [1] = biological target: T1, SIK1 (Homo sapiens, UniProt P57059); assay: biochemical; conditions: ADP-Glo SIK kinase assay
T1 construct: purchased Carna Biosciences 02-131
Procedure: (§1) The ADP-Glo™ kinase assay is a luminescent technology assay which measures the ADP formed from a kinase reaction. […] In a second step the kinase reactions are terminated and all the remaining ATP is depleted. In a final step the ADP is converted into ATP and this newly synthesized ATP is measured by using a luciferase/luciferin reaction. The generated light is measured using an Envision plate reader, wherein the luminescent signal obtained positively correlates with the kinase activity.
(§2) 1% DMSO and 10 μM staurosporine final concentrations are used as negative and positive controls.
(§3) 2 μL enzyme-substrate mixture is added to the assay plates.
(§4) The reaction is started by adding 2 μL diluted ATP on the assay plates. Plates are centrifuged for a few seconds at 1000 rpm and gently shaken for 2 min followed by an incubation at RT for 120 min.
(§5) The reactions are stopped and the unconsumed ATP is depleted by adding 5 μL ADP-Glo Reagent (Promega, Cat #V912B) to the reaction. The plates are centrifuged for a few seconds at 1000 rpm and incubated at RT for 40 min (ATP depletion).
(§6) The ADP is converted to ATP and luciferase and luciferin is introduced to detect ATP by adding 10 μL Kinase Detection Reagent (Promega, Cat #V913B+V914B) to the reaction. The plates are centrifuged for a few seconds at 1000 rpm and incubated at RT for 30 min (ADP detection).
(§7) Luminescence is measured on an Envision plate reader (PerkinElmer Inc.).

SIK2 [2] = biological target: T2, SIK2 (Homo sapiens, UniProt Q9H0K1); assay: biochemical; conditions: ADP-Glo SIK kinase assay
T2 construct: purchased ThermoFisher Scientific PV4792
T2 sequence (Q9H0K1 whole entry): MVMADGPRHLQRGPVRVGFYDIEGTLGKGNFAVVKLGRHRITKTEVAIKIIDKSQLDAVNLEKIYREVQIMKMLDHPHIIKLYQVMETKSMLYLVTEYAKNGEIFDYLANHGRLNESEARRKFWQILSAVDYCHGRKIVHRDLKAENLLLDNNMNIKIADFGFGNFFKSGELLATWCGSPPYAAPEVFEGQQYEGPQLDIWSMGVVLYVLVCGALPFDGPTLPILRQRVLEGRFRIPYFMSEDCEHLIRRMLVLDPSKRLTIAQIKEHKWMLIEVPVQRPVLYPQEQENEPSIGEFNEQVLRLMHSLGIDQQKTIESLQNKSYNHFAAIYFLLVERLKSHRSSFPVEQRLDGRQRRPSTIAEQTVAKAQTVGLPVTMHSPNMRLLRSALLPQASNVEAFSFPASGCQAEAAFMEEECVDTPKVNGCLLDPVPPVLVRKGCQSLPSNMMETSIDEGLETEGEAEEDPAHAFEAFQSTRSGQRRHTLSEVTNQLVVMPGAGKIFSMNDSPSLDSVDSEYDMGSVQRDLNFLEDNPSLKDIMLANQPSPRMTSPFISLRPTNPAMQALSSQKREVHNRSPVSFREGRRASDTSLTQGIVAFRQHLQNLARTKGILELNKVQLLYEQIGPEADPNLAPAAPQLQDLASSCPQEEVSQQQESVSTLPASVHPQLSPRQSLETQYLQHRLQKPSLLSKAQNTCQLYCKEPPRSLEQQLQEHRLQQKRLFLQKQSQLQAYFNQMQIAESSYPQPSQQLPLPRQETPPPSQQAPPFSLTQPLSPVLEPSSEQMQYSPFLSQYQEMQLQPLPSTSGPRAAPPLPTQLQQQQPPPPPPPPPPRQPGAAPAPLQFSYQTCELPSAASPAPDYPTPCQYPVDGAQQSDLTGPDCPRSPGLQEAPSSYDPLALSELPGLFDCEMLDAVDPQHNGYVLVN
Procedure: as §1, §2, §3, §4, §5, §6, §7

SIK3 [3] = biological target: T3, SIK3 (Homo sapiens, UniProt Q9Y2K2); assay: biochemical; conditions: ADP-Glo SIK kinase assay
T3 construct: purchased SignalChem S12-11G-100
T3 sequence (Q9Y2K2 whole entry): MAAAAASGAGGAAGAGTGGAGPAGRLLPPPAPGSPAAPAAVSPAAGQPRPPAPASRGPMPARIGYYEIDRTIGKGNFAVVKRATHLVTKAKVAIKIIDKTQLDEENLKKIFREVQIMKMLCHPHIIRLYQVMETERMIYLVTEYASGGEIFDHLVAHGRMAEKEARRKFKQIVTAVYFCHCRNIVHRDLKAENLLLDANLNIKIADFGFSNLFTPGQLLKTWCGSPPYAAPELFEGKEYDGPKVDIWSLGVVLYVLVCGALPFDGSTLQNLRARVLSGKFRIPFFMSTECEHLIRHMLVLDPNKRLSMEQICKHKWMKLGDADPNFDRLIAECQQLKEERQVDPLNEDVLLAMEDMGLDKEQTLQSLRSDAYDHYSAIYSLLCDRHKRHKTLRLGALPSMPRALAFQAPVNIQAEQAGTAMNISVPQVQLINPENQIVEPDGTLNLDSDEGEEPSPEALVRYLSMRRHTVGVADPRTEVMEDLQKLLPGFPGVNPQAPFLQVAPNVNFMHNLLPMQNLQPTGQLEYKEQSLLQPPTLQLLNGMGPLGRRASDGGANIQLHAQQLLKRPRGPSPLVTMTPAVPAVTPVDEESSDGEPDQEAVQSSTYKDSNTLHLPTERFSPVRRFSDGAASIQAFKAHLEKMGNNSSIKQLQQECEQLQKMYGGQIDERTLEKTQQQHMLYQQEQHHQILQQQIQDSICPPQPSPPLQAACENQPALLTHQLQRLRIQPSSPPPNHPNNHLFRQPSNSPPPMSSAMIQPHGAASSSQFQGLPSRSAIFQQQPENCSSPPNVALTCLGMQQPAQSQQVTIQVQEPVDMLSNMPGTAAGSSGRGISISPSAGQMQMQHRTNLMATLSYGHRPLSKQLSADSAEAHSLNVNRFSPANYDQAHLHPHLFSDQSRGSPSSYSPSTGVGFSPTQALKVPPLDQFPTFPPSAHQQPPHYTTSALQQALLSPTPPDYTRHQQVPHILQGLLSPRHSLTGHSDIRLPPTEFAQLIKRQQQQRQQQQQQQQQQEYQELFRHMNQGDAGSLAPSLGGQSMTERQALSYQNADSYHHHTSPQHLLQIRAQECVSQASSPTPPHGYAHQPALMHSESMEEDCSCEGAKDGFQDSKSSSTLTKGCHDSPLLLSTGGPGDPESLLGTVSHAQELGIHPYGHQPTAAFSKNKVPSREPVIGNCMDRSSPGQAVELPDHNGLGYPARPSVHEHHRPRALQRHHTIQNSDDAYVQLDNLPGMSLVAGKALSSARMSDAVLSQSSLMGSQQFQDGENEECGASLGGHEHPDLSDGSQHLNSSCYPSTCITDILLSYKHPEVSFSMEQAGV
Procedure: as §1, §2, §3, §4, §5, §6, §7

[4] = tested on: LPS-induced TNFα secretion in monocyte-derived macrophages (MdM); assay: MdM assay: LPS-triggered TNFα (ELISA); type: cell-based, human; conditions: Homo sapiens, Macrophage, LPS-triggered TNFα inhibition
Summary of the method: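 Human CD14+ monocytes isolated from buffy-coat PBMCs by magnetic beads, differentiated to macrophages; on day 10 compound preincubated 1 h at 37 °C, then LPS 200 ng/mL added (0.2% DMSO). Supernatant taken after 20 h; TNFα quantified by sandwich ELISA against standard curve.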

SIK1 [5] = biological target: T1, SIK1; assay: biochemical; conditions: 33P radioactive SIK kinase assay, AMARA peptide, 10 μM ATP; read-out: SIK1 IC50
Summary of the method: (§8)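 Radiometric assay: SIK1, SIK2 or SIK3 phosphorylates AMARA peptide using unlabelled plus [^33P]-γ-ATP, reaction started by ATP addition. Stopped with 150 mM phosphoric acid, filter-harvested and washed; incorporated ^33P counted by scintillation. Controls: 1% DMSO and 10 μM staurosporine final.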

SIK2 [6] = biological target: T2, SIK2; assay: biochemical; conditions: 33P radioactive SIK kinase assay, AMARA peptide, 10 μM ATP
Summary of the method: as §8

SIK3 [7] = biological target: T3, SIK3; assay: biochemical
Summary of the method: as §8

T1 sequence (P57059 whole entry): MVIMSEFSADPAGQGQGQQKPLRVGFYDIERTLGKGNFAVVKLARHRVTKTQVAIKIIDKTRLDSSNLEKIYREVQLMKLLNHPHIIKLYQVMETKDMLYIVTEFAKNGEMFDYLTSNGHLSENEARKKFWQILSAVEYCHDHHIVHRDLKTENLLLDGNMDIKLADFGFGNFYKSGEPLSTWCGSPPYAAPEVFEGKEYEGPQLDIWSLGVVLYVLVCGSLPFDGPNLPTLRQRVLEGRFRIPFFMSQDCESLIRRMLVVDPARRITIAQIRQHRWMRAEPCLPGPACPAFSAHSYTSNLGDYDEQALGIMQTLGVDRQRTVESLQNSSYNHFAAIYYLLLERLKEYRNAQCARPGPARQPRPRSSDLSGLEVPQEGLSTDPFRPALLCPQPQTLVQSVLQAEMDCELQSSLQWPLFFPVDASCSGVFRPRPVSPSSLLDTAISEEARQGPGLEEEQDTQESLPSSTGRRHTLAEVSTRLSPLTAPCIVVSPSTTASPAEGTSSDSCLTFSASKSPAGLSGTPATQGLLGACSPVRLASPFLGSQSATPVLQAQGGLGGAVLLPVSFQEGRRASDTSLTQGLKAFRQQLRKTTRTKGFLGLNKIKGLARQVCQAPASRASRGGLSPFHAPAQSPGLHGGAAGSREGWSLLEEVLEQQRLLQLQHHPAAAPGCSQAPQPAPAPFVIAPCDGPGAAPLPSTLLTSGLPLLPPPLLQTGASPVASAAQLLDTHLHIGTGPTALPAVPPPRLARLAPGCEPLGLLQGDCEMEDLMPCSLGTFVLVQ

IC50 (SIK1 [1]) [nM] | IC50 (SIK2 [2]) [nM] | IC50 (SIK3 [3]) [nM] | EC50 [4] [nM] | IC50 (SIK1 [5]) [nM] | IC50 (SIK2 [6]) [nM] | IC50 (SIK3 [7]) [nM] | Compound
10 to 100 | 0.01 to 10 | 10 to 100 | > 5000 |  |  |  | COc1cc(-c2cnc3cc(-c4cnn(C)c4)c(OCC(=O)O)cn23)cc(OC(F)F)c1C(=O)NC1CC1 [Cpd 299, 2-[3-[4-(cyclopropyl-carbamoyl)-3-(difluoromethoxy)-5-methoxy-phenyl]-7-(1-melhylpyrazol-4-yl)imidazo[1,2-a]pyridin-6-yl]oxyacetic acid]
0.01 to 10 | 0.01 to 10 | 0.01 to 10 | 100 to 1000 |  |  |  | CCN(CC)CCOC(=O)C(C)(C)n1cc(-c2ccn3c(-c4cc(OC)c(C(=O)NCC(F)(F)F)c(OC)c4)cnc3c2)cn1 [Cpd 305, 2-(diethylamino)ethyl 2-[4-[3-[3,5-dimethoxy-4-(2,2,2-trifluoroethyl-carbamoyl)phenyl]imidazo[1,2-a]pyridin-7-yl]pyrazol-1-yl]-2-methyl-propanoate]
0.01 to 10 | 0.01 to 10 | 0.01 to 10 |  | 10 to 100 | 0.01 to 10 | 0.01 to 10 | COc1cc(-c2cnc3cc(-c4cnn(C)c4)ccn23)cc(OC)c1C(=O)N[C@H]1C[C@@H]1C(F)F [compound 172, N-[(1S,2S)-2-(difluoromethyl)cyclopropyl]-2,6-dimethoxy-4-[7-(1-methylpyrazol-4-yl)imidazo[1,2-a]pyridin-3-yl]benzamide]
100 to 500 | 10 to 100 | 10 to 100 |  | > 500 | 10 to 100 | 100 to 500 | CCN1Cc2cc(-c3cnc4cc(-c5cnn(C)c5)ccn34)cc(NCCO)c2C1=O [compound 201, 2-ethyl-7-(2-hydroxyethylainino)-5-[7-(1-methylpyrazol-4-yl)imidazo[1,2-a]pyridin-3-yl]isoindolin-1-one]
0.01 to 10 | 0.01 to 10 | 0.01 to 10 |  | 0.01 to 10 | 0.01 to 10 | 0.01 to 10 | COc1cc(-c2cnc3cc(-c4cnn(C5CN(C(=O)OC(C)(C)C)C5)c4)ccn23)cc(OC)c1C(=O)NCC(F)(F)F [compound 260, tert-butyl 3-[4-[3-[3,5-dimethoxy-4-(2,2,2-trifluoroethyl-carbamoyl)phenyl]imidazo[1,2-a]pyridin-7-yl]pyrazol-1-yl]azetidine-1-carboxylate]
0.01 to 10 | 0.01 to 10 | 0.01 to 10 | 0.1 to 100 |  |  |  | COc1ccc(-c2ccn3c(-c4cc(OC)c(C(=O)NC5CC5)c(OC(F)F)c4)cnc3c2)cn1 [compound 267, N-cyclopropyl-2-(difluoromethoxy)-6-methoxy-4-[7-(6-methoxy-3-pyridyl)imidazo[1,2-a]pyridin-3-yl]benzamide]
0.01 to 10 | 0.01 to 10 | 0.01 to 10 | 0.1 to 100 |  |  |  | COc1cc(-c2cnc3cc(-c4cc(C)no4)ccn23)cc(OC(F)F)c1C(=O)NC1CC1 [compound 270, N-cyclopropyl-2-(difluoromethoxy)-6-methoxy-4-[7-(3-methylisoxazol-5-yl)imidazo[1,2-a]pyridin-3-yl]benzamide]
10 to 100 | 0.01 to 10 | 0.01 to 10 | 100 to 1000 |  |  |  | COc1cc(-c2cnc3cc(-c4cncn4C)ccn23)cc(OC(F)F)c1C(=O)NC1CC1 [compound 274, N-cyclopropyl-2-(difluoromethoxy)-6-methoxy-4-[7-(3-methylimidazol-4-yl)imidazo[1,2-a]pyridin-3-yl]benzamide]
0.01 to 10 | 0.01 to 10 | 0.01 to 10 | 0.1 to 100 |  |  |  | COc1cc(-c2cnc3cc(-c4ccc(C5CC5)nn4)ccn23)cc(OC(F)F)c1C(=O)NC1CC1 [compound 285, N-cyclopropyl-4-[7-(6-cyclopropyl-pyridazin-3-yl)imidazo[1,2-a]pyridin-3-yl]-2-(difluoromethoxy)-6-methoxy-benzamide]
0.01 to 10 | 0.01 to 10 | 0.01 to 10 | 0.1 to 100 |  |  |  | COc1cc(-n2cnc3cc(-c4cn[nH]c4)ccc32)cc(OC(F)F)c1C(=O)NC1CC1 [compound 306, N-cyclopropyl-2-(difluoromethoxy)-6-methoxy-4-[5-(1H-pyrazol-4-yl)benzimidazol-1-yl]benzamide]

The remaining lines, values behind:

Compound | IC50 (SIK1 [1]) [nM] | IC50 (SIK2 [2]) [nM] | IC50 (SIK3 [3]) [nM] | EC50 [4] [nM] | IC50 (SIK1 [5]) [nM] | IC50 (SIK2 [6]) [nM] | IC50 (SIK3 [7]) [nM]
COc1cc(-c2cnc3cc(-c4ccc(C)nn4)ccn23)cc(OC(F)F)c1C(=O)NC1CC1 [Cpd 273, N-cyclopropyl-2-(difluoromethoxy)-6-methoxy-4-[7-(6-methylpyridazin-3-yl)imidazo[1,2-a]pyridin-3-yl]benzamide] | 10 to 100 | 0.01 to 10 | 0.01 to 10 | 0.1 to 100 |  |  | 
COc1cc(-c2cnc3cc(-c4cnn(C)c4)ccn23)cc(F)c1C(=O)NC1CC1 [Cpd 276, N-cyclopropyl-2-fluoro-6-methoxy-4-[7-(1-methylpyrazol-4-yl)imidazo[1,2-a]pyridin-3-yl]benzamide] | 10 to 100 | 0.01 to 10 | 0.01 to 10 | 0.1 to 100 |  |  | 
COCCOc1cc(-c2cnc3cc(-c4cnn(C)c4)ccn23)cc(OC)c1C(=O)NC1CC1 [Cpd 278, N-cyclopropyl-2-methoxy-6-(2-methoxyethoxy)-4-[7-(1-methylpyrazol-4-yl)imidazo[1,2-a]pyridin-3-yl]benzamide] | 10 to 100 | 0.01 to 10 | 0.01 to 10 | 100 to 1000 |  |  | 
CCOC(=O)C(Cn1cc(-c2ccn3c(-c4cc(OC)c(C(=O)NCC(F)(F)F)c(OC)c4)cnc3c2)cn1)C(C)C (stereo not drawn) [Cpd 294] | 0.01 to 10 | 0.01 to 10 | 0.01 to 10 | 0.1 to 100 |  |  | 
CCOC(=O)C(C)(C)n1cc(-c2ccn3c(-c4cc(OC)c(C(=O)NCC(F)(F)F)c(OC)c4)cnc3c2)cn1 [Cpd 295, ethyl 2-[4-[3-[3,5-dimethoxy-4-(2,2,2-trifluoroethyl-carbamoyl)phenyl]imidazo[1,2-a]pyridin-7-yl]pyrazol-1-yl]-2-methyl-propanoate] | 0.01 to 10 | 0.01 to 10 | 0.01 to 10 | 0.1 to 100 |  |  | 
CCOC(=O)C(C(C)C)n1cc(-c2ccn3c(-c4cc(OC)c(C(=O)NCC(F)(F)F)c(OC)c4)cnc3c2)cn1 (stereo not drawn) [Cpd 296, ethyl 2-[4-(3-[3,5-dimethoxy-4-(2,2,2-trifluoro-ethylcarbamoyl)phenyl]imidazo[1,2-a]pyridin-7-yl]pyrazol-1-yl]-3-methyl-butanoate] | 0.01 to 10 | 0.01 to 10 | 0.01 to 10 | 0.1 to 100 |  |  | 
COc1cc(-c2cnc3cc(-c4cnn(CC(=O)OCC5CCCO5)c4)ccn23)cc(OC)c1C(=O)NCC(F)(F)F (stereo not drawn) [Cpd 297, tetrahydrofuran-2-ylmethyl 2-[4-[3-[3,5-dimethoxy-4-(2,2,2-trifluoro-ethylcarbamoyl)phenyl]imidazo[1,2-a]pyridin-7-yl]pyrazol-1-yl]acetate] | 0.01 to 10 | 0.01 to 10 | 0.01 to 10 | 100 to 1000 |  |  | 
CCOC(=O)COc1cn2c(-c3cc(OC)c(C(=O)NC4CC4)c(OC(F)F)c3)cnc2cc1-c1cnn(C)c1 [Cpd 298, ethyl 2-[3-[4-(cyclopropyl-carbamoyl)-3-(difluoromethoxy)-5-methoxy-phenyl]-7-(1-methylpvrazol-4-yl)imidazo[1,2-a]pyridin-6-yl]oxyacetate] | 0.01 to 10 | 0.01 to 10 | 0.01 to 10 | 1000 to 5000 |  |  | 
